Test results: patent US20230295109A1, “PYRIDINONE COMPOUNDS FOR THE TREATMENT OF AUTOIMMUNE DISEASE” (F. Hoffmann-La Roche AG, priority 2020, published 2023)
Read-outs that look alike come from different tables or passages of the source.

Assays:
[1] = Single dose pharmacokinetics (PK) study in male Wister-Han rats; assay type: in vivo
Method: Pharmacokinetic properties of selected compounds were assessed by single dose PK studies in Male Wister-Han Rats (vendor: Beijing Vital River Laboratory Animal Technology Co., Ltd). Briefly, two groups of animals were administered a single dose of respective compound intravenously (IV, bolus) at 2 mg/kg or orally (PO, by gavage) at 10 mg/kg. Blood samples (approximately 150 µL) were collected via Jugular vein at 5 min (only for IV), 15 min, 30 min, 1 h, 2 h, 4 h, 7 h and 24 h post-dose. Blood samples were placed into tubes containing EDTA-K2 anticoagulant and centrifuged at 3000 rpm for 15 min at 4° C. to separate plasma from the samples. After centrifugation, the resulting plasma was transferred to clean tubes for bioanalysis with LC/MS/MS. The pharmacokinetic parameters were calculated using non-compartmental analysis. The volume of distribution (Vss), half-life (T½) and clearance (CL) were obtained based on the plasma concentration-time curve after IV dose. The peak concentration (Cmax) was recorded directly from experimental observations after PO dose. The area under the plasma concentration-time curve (AUC0-last) was calculated using the linear trapezoidal rule up to the last detectable concentration. The bioavailability (F) was calculated based on the dose normalized AUC0-last after IV and PO dose.
The Vss of a drug represents the degree to which a drug is distributed in body tissue rather than the plasma. Vss is directly proportional with the amount of drug distributed into tissue. A higher Vss indicates a greater amount of tissue distribution.

[2] = test system: TLR7 and TLR8; experiment: Human PBMC cell-based assay, TLR7 and TLR8 (R848); details: R848 at 1 µg/mL, overnight, cytokine levels, read-out: hPBMC/TLR78 IC50
Text: Unlike the HEK reporter cell lines, human peripheral blood mononuclear cell (PBMC) represents primary human immune cells in blood mainly consisting of lymphocytes, monocytes, and dendritic cells. These cells express TLR7, TLR8, or TLR9, and therefore are natural responders to respective ligand stimulation. Upon activation of these TLRs, PBMCs secrete similar cytokines and chemokines in vitro and in vivo, and therefore the in vitro potency of a TLR7/8/9 antagonist in human PBMC is readily translatable to its pharmacodynamics response in vivo.
Human peripheral blood mononuclear cells (PBMC) were isolated from freshly-drawn lithium-heparinized (Lithium Heparin Plus blood Collection tube, BD Vacutainer®) healthy donor whole blood by density gradient (Ficoll-PaqueTM PLUS, GE Healthcare life Sciences). Briefly, […] was diluted with 25 mL PBS (without Ca^2+, Mg^2+) in a 50 mL conical tube with porous barrier (Leucosep tube, Greiner bio-one), where 15.5 mL Ficoll-Paque was under laid after spinning. Tubes were centrifuged for 20 minutes at 800×g (1946 rpm) with the brake in the off position, and PBMC were collected from the buffy coat. Cells were then washed twice in PBS, and red blood cells were lysed by suspension in 2 mL (Red Blood Cell Lysis Buffer, Alfa Aesar) for 5-10 minutes at room temperature. After a final wash in PBS, PBMC were resuspended at a final concentration of 2×10^6 cells/mL in RPMI-1640 media with GlutaMAXTM (Gibco) supplemented with 10% Fetal Bovine Serum (Sigma) and plated at 150µL/well (3×10^5 cells/well) in tissue culture treated round bottom 96-well plates (Corning Incorporated). Antagonist compounds (compounds of this invention) solubilized and serial diluted in 100% DMSO were added in duplicate to cells to yield a final concentration of 1% DMSO (v/v). PBMC were incubated with antagonist compounds for 30 minutes at 37° C., 5% CO2 before adding various TLR agonist reagents in 48 µL complete media per well as follows (final concentrations indicated): CpG ODN 2216 (InvivoGen) at 1 µM for TLR9, ORN 06/LyoVec (InvivoGen) at 1 µg/mL for TLR8 and R848 (InvivoGen) at 1 µg/mL for TLR7 and TLR8. PBMC were incubated overnight at 37° C. with 5% CO2. Cell culture supernatants were collected, and levels of various human cytokines were assessed by Luminex assay (ProcartaPlexTM Multiplex Immunoassay, Invitrogen) or ELISA procedure according to the manufacturer’s recommended protocol (eBioscience, ThermoFisher Scientific). Viability of the cells was also checked with Cell Viability Assay (CellTiter Glo®Luminescent Cell Viability Assay, Promega).

Compound: CCc1nc(N2CCN(Cc3cnc(N4CC5(CNCCO5)C4)nc3)CC2)ccc1-c1cc(C)c(=O)n(C)c1 [Example 1, 5-[2-ethyl-6-[4-[[2-(5-oxa-2,8-diazaspiro[3.5]nonan-2-yl)pyrimidin-5-yl]methyl]piperazin-1-yl]-3-pyridyl]-1,3-dimethyl-pyridin-2-one]
- F ([1]; dose normalized AUC0-last after IV 2 mg/kg and PO 10 mg/kg): 40%
- AUC(0-t) ([1]; rat, IV 2 mg/kg, plasma, read-out: IV AUC0-last): 873 ng·h/mL
- Cmax ([1]; rat, PO 10 mg/kg, plasma): 151 ng/mL
- AUC(0-t) ([1]; rat, PO 10 mg/kg, plasma, read-out: PO AUC0-last): 1750 ng·h/mL
- clearance ([1]; rat, plasma, IV 2 mg/kg): 37 mL/min/kg
- half-life ([1]; rat, plasma, IV 2 mg/kg, read-out: T½ (converted)): 3.78 h
- Vd ([1]; rat, plasma, IV 2 mg/kg, read-out: Vss): 7.4 L/kg

Compound: CCc1nc(N2CCN(Cc3ccc(N4CC5(CNCCO5)C4)nc3)CC2)ccc1-c1cc(C)c(=O)n(C)c1 [Example 2, 5-[2-ethyl-6-[4-[[6-(5-oxa-2,8-diazaspiro[3.5]nonan-2-yl)-3 pyridyl]methyl]piperazin-1-yl]-3-pyridyl]-1,3-dimethyl-pyridin-2-one]
- IC50 [2]: 7 nM

Compound: CCc1nc(N2CCN(Cc3cnc(N4CC(C)(N)C4)nc3)CC2)ccc1-c1cc(C)c(=O)n(C)c1 [Example 3, 5-[6-[4-[[2-(3-amino-3-methyl-azetidin-1-yl)pyrimidin-5-yl]methyl]piperazin-1-yl]-2-ethyl-3-pyridyl]-1,3-dimethyl-pyridin-2-one]
- IC50 [2]: 21 nM

Compound: Cc1cc(-c2ccc(N3CCN(Cc4cnc(N5CCNCC5)nc4)CC3)nc2C(C)C)cn(C)c1=O [Example 9, 5-[2-isopropyl-6-[4-[(2-piperazin-1-ylpyrimidin-5-yl)methyl]piperazin-1-yl]-3-pyridyl]-1,3-dimethyl-pyridin-2-one]
- IC50 [2]: 0.4 nM

Compound: Cc1cc(-c2ccc(N3CCN(Cc4ncc(N5CCNCC5)cn4)CC3)nc2C(C)C)cn(C)c1=O [Example 12, 5-[2-isopropyl-6-[4-[(5-piperazin-1-ylpyrimidin-2-yl)methyl]piperazin-1-yl]-3-pyridyl]-1,3-dimethyl-pyridin-2-one]
- IC50 [2]: 12 nM

Compound: Cc1cc(-c2ccc(N3CCN4CCN(c5ccc(N6CCNCC6)nc5)CC4C3)nc2C(C)C)cn(C)c1=O (stereo not drawn) [Example 16, 5-[2-isopropyl-6-[8-(6-piperazin-1-yl-3-pyridyl)-3,4,6,7,9,9a-hexahydro-1H-pyrazino[1,2-a]pyrazin-2-yl]-3-pyridyl]-1,3-dimethyl-pyridin-2-one]
- IC50 [2]: 2 nM
